Test results reported in patent US20090312297A1, “METHODS FOR TREATING HYPERCHOLESTEROLEMIA AND ATHEROSCLEROSIS” (PRESIDENT AND FELLOWS OF HARVARD COLLEGE, priority 2006, published 2009).

How the values were obtained:
Format in all cases: in vivo, mouse
apoE−/− mice [1] = experiment: Atherosclerotic lesions in aortas (Oil-Red-O staining) of apoE−/− mice on western diet; details: for atherosclerotic lesion area per full aorta: p<0.05 vs. control, FIG. 2(a)
Procedure: (§1) apoE−/− mice (a commonly used model of hypercholesterolemia and atherosclerosis) were purchased from Jackson Labs. At 6 weeks of age, the mice were placed on a western diet (to further increase cholesterol levels and vascular lesions) and treatments with either phosphate buffered saline (PBS) (vehicle) or TUDCA (500 mg/kg/day, single dose, i.p.) were started.
After 3 months of western diet and treatment, mice were sacrificed and aortas were dissected and fixed in 10% buffered formalin and stained with Oil-Red-O which stains lipids.
(§2) apoE−/− mice were purchased from Jackson Labs. At 6 weeks of age, the mice were placed on a western diet and treatments with either phosphate buffered saline (PBS) (vehicle); TUDCA (50 mg/kg/day or 500 mg/kg/day, single dose, i.p.); or 4-PBA (10 mg/kg/day, 200 mg/kg/day, or 1 g/kg/day, single dose, oral gavage) were started.
After 3 months of western diet and treatment, mice were sacrificed and aortas were dissected and fixed in 10% buffered formalin and stained with Oil-Red-O. The amount of atherosclerotic lesion area per full aorta was determine and is expressed as a percent as shown in FIG. 2(a). Mice receiving vehicle (PBS) developed robust atherosclerotic lesions in the aortic arch as well as in the thoracic and abdominal parts of the aorta (0.25%±0.06). […] PBA administration at a dose of 10 mg/kg/day was also found to be effective in reducing formation of atherosclerotic lesions (0.09%±0.03, n=4, p<0.05 vs. control).

apoE−/− mice [2] = experiment: Lipoprotein profile analysis of serum by HPLC in apoE−/− mice on western diet; details: Example 2, 3 months
Procedure: as §2
(§3) Blood samples were obtained from the animals described above. Lipoprotein profiles analysis was performed by HPLC (FIG. 2b), and total cholesterol levels (FIG. 2c). […] Moreover, the ability to reduce the development of atherosclerotic lesions is not dependent on the ability of a compound to reduce cholesterol.

apoE−/− mice [3] = experiment: Serum total cholesterol levels in apoE−/− mice on western diet; details: 3 months
Procedure: as §1
Blood samples were obtained from the animals described above and serum cholesterol levels were determined by the Piccolo automated device with lipid panel (Abaxis, Calif.).
as §2, §3

| Structure (SMILES) | amount of atherosclerotic lesion relative to control treated animals (apoE−/− mice [1]; Example 1, about 10 mg/kg/day, similar conditions) | atherosclerotic lesion area per full aorta (apoE−/− mice [1]; Example 2, 10 mg/kg/day oral gavage, 3 months, n=4) | reduction of formation of atherosclerotic lesions (apoE−/− mice [1]; Example 2, higher doses (200 mg/kg/day, 1 g/kg/day), oral gavage, 3 months) | total cholesterol or specific lipoprotein levels (apoE−/− mice [2]; 4-PBA oral gavage (10 mg/kg in FIG. 2)) | Oil-Red-O staining of aortas (apoE−/− mice [1]; Example 1, 500 mg/kg/day, single dose, i.p., 3 months of western diet and treatment, vs PBS) | atherosclerotic lesion area per full aorta (apoE−/− mice [1]; Example 2, 50 mg/kg/day i.p., 3 months, n=3) | atherosclerotic lesion area per full aorta (apoE−/− mice [1]; Example 2, 500 mg/kg/day i.p., 3 months, n=3) | serum cholesterol levels (apoE−/− mice [3]; Example 1, 500 mg/kg/day, single dose, i.p., Piccolo lipid panel, FIG. 1, vs PBS) | total cholesterol (apoE−/− mice [3]; Example 2, 500 mg/kg/day i.p., FIG. 2c) | total cholesterol or specific lipoprotein levels (apoE−/− mice [2]; 50 mg/kg/day i.p.) | HDL (apoE−/− mice [2]; 500 mg/kg/day i.p., FIG. 2b) | LDL (apoE−/− mice [2]; 500 mg/kg/day i.p., FIG. 2b) | VLDL (apoE−/− mice [2]; 500 mg/kg/day i.p., FIG. 2b) |
| --- | --- | --- | --- | --- | --- | --- | --- | --- | --- | --- | --- | --- | --- |
| O=C(O)CCCc1ccccc1 [PBA, 4-phenyl butyrate] | effective in reducing the amount of atherosclerotic lesion | 0.09%±0.03 | no similar reduction was observed | no significant changes |  |  |  |  |  |  |  |  |  |
| C[C@H](CCC(=O)NCCS(=O)(=O)O)[C@H]1CC[C@H]2[C@@H]3[C@@H](O)C[C@@H]4C[C@H](O)CC[C@]4(C)[C@H]3CC[C@]12C [TUDCA, tauroursodeoxycholic acid] |  |  |  |  | PBS treated animals had substantially more Oil-Red-O staining | 0.03%±0.01 | 0.01%±0.01 | significantly (p<0.001) lowered | significant decrease | no significant changes | marked increase | significant decrease | significant decrease |
